Reference: ChEMBL document CHEMBL1201862, “PubChem BioAssay data set” (2004)
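Tested at 5 concentrations; 48 h exposure; 96-well plates; endpoints linearly interpolated, else capped at highest concentration. GI50 is the concentration that inhibits growth by half.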 Activity calls are given as the source filed them. Rule as the data show it: active = GI50 up to about 1.1 µM and inactive = higher.

Experiments:
Assay in all cases: NCI anticancer screen, dose series, 48 h
OVCAR-5 = system: OVCAR-5
SN12C = system: SN12C
CAKI-1 = system: CAKI-1
COLO 205 = system: COLO 205
NCI-H226 = system: NCI-H226
PC-3 = system: PC-3
SF-268 = system: SF-268
UACC-257 = system: UACC-257
MOLT-4 = system: MOLT-4
NCI-H522 = system: NCI-H522
SF-295 = system: SF-295
SNB-19 = system: SNB-19
HCT-116 = system: HCT-116
K562 = system: K562
SR = system: SR
EKVX = system: EKVX
SK-MEL-28 = system: SK-MEL-28
SK-MEL-5 = system: SK-MEL-5
BT-549 = system: BT-549

Row | Structure (SMILES) | GI50 (OVCAR-5) | GI50 (SN12C) | GI50 (CAKI-1) | GI50 (COLO 205) | GI50 (NCI-H226) | GI50 (PC-3) | GI50 (SF-268) | GI50 (UACC-257) | GI50 (MOLT-4) | GI50 (NCI-H522) | GI50 (SF-295) | GI50 (SNB-19) | GI50 (HCT-116) | GI50 (K562) | GI50 (SR) | GI50 (EKVX) | GI50 (SK-MEL-28) | GI50 (SK-MEL-5) | GI50 (BT-549)
1 | O=C(O)c1cc(-c2ccc3c(O)c(O)ccc3c2)ccc1O | 12.6 µM (inactive) | 14.8 µM (inactive) | 4.34 µM (inactive) | 24.9 µM (inactive) | 28 µM (inactive) | > 75 µM (inactive) | > 75 µM (inactive) | 68.4 µM (inactive) | 12.6 µM (inactive) | 38.5 µM (inactive) | 16.1 µM (inactive) | > 75 µM (inactive) | 15.8 µM (inactive) | 13.1 µM (inactive) | 18.1 µM (inactive) | > 75 µM (inactive) | > 75 µM (inactive) | 34.2 µM (inactive) | –
2 | CC1(C)CC2(C)OC(=N)C1(C#N)C2(C#N)C#N (configuration not stated) | 14.3 µM (inactive) | 10.1 µM (inactive) | 1.02 µM (active) | 2.56 µM (inactive) | > 10 µM (inactive) | 16.1 µM (inactive) | 15.6 µM (inactive) | 7.4 µM (inactive) | 9.53 µM (inactive) | 2.44 µM (inactive) | 16.3 µM (inactive) | 16.2 µM (inactive) | 7.46 µM (inactive) | 6.93 µM (inactive) | – | 5.02 µM (inactive) | – | 8.83 µM (inactive) | –
3 | COP(C)(=O)C1=CCN(C(=O)OCC[Si](C)(C)C)CC1 (configuration not stated) | > 100 µM (inactive) | – | > 100 µM (inactive) | > 100 µM (inactive) | > 100 µM (inactive) | > 100 µM (inactive) | > 100 µM (inactive) | > 100 µM (inactive) | – | > 100 µM (inactive) | > 100 µM (inactive) | > 100 µM (inactive) | – | – | – | > 100 µM (inactive) | > 100 µM (inactive) | > 100 µM (inactive) | –
4 | O=C1C(Cl)=C(Cl)C(Cl)(Cl)C(Cl)C1(Cl)Cl (configuration not stated) | 23.2 µM (inactive) | 20 µM (inactive) | – | 17.9 µM (inactive) | – | 25 µM (inactive) | 19.6 µM (inactive) | 18.4 µM (inactive) | – | 13.7 µM (inactive) | 21.2 µM (inactive) | 22.4 µM (inactive) | 18.8 µM (inactive) | 24.6 µM (inactive) | – | 20.8 µM (inactive) | 23.5 µM (inactive) | 13.7 µM (inactive) | 19.7 µM (inactive)
5 | O=c1c2c(c1=O)C1(SCCCS1)c1cc(Cl)ccc1O2 | > 100 µM (inactive) | > 100 µM (inactive) | > 100 µM (inactive) | > 100 µM (inactive) | > 100 µM (inactive) | > 100 µM (inactive) | > 100 µM (inactive) | > 100 µM (inactive) | > 100 µM (inactive) | > 100 µM (inactive) | > 100 µM (inactive) | > 100 µM (inactive) | > 100 µM (inactive) | > 100 µM (inactive) | – | > 100 µM (inactive) | > 100 µM (inactive) | > 100 µM (inactive) | > 100 µM (inactive)
6 | CC(=O)[C@]1(C)[C@H](C)O[C@](C)(CO)[C@H]1O[Si](C)(C)c1ccccc1 | > 100 µM (inactive) | 51.6 µM (inactive) | 17.9 µM (inactive) | 56.6 µM (inactive) | 67.9 µM (inactive) | 45.5 µM (inactive) | 54.5 µM (inactive) | 23 µM (inactive) | 34.6 µM (inactive) | 23.2 µM (inactive) | 53 µM (inactive) | > 100 µM (inactive) | 38.4 µM (inactive) | 32.8 µM (inactive) | 31.8 µM (inactive) | 46.3 µM (inactive) | 87.1 µM (inactive) | 33.9 µM (inactive) | –
7 | COc1ccc(-c2ccc(C(=O)C=P(c3ccccc3)(c3ccccc3)c3ccccc3)cc2)cc1 | 16.6 µM (inactive) | 14.9 µM (inactive) | 11.4 µM (inactive) | 3.94 µM (inactive) | 12.9 µM (inactive) | 7.55 µM (inactive) | 24.3 µM (inactive) | 17.7 µM (inactive) | 4.59 µM (inactive) | – | 10.4 µM (inactive) | 25.6 µM (inactive) | 12.4 µM (inactive) | 5 µM (inactive) | 16.2 µM (inactive) | 6.59 µM (inactive) | 14.8 µM (inactive) | 9.64 µM (inactive) | –
8 | Cc1nn(C2OC(CO)C(O)C(F)C2O)c(=O)[nH]c1=O (configuration not stated) | > 100 µM (inactive) | > 100 µM (inactive) | > 100 µM (inactive) | > 100 µM (inactive) | > 100 µM (inactive) | > 100 µM (inactive) | > 100 µM (inactive) | > 100 µM (inactive) | 0.504 µM (active) | > 100 µM (inactive) | > 100 µM (inactive) | > 100 µM (inactive) | > 100 µM (inactive) | > 100 µM (inactive) | – | – | > 100 µM (inactive) | > 100 µM (inactive) | > 100 µM (inactive)
9 | COc1ccc(/C=C2\CCC(CNc3ccc(OC)cc3)C2=O)cc1 (configuration not stated) | 18.5 µM (inactive) | 16 µM (inactive) | 18.7 µM (inactive) | 15.7 µM (inactive) | > 100 µM (inactive) | 16.8 µM (inactive) | 14.6 µM (inactive) | 17.5 µM (inactive) | – | 5.58 µM (inactive) | 31 µM (inactive) | > 42.6 µM (inactive) | 11 µM (inactive) | – | – | 30.3 µM (inactive) | 18.9 µM (inactive) | 19 µM (inactive) | 13.7 µM (inactive)
10 | CNc1ccc([S+]([O-])Nc2ccccc2)cc1 (configuration not stated) | > 100 µM (inactive) | > 100 µM (inactive) | – | 26.4 µM (inactive) | 21.2 µM (inactive) | – | 25.9 µM (inactive) | 41.1 µM (inactive) | 52.6 µM (inactive) | 19 µM (inactive) | 41.5 µM (inactive) | > 100 µM (inactive) | 40.2 µM (inactive) | 34.8 µM (inactive) | 38.2 µM (inactive) | 30.5 µM (inactive) | > 100 µM (inactive) | 25.8 µM (inactive) | –
11 | COC1(OC)N=C(N)C2(C#N)/C(=N/N(C)C)CC(C)C12C#N (configuration not stated) | > 100 µM (inactive) | > 100 µM (inactive) | > 100 µM (inactive) | > 100 µM (inactive) | > 100 µM (inactive) | > 100 µM (inactive) | > 100 µM (inactive) | > 100 µM (inactive) | > 100 µM (inactive) | > 100 µM (inactive) | > 100 µM (inactive) | > 100 µM (inactive) | > 100 µM (inactive) | > 100 µM (inactive) | > 100 µM (inactive) | > 100 µM (inactive) | > 100 µM (inactive) | > 100 µM (inactive) | –
12 | O=C1O/C(=C(/Cl)c2c3ccccc3cc3ccccc23)c2ccccc21 | 33.2 µM (inactive) | 26.1 µM (inactive) | 33.4 µM (inactive) | 23.2 µM (inactive) | 26.7 µM (inactive) | 24.8 µM (inactive) | 30.5 µM (inactive) | 33.2 µM (inactive) | 7.53 µM (inactive) | 29.8 µM (inactive) | 47 µM (inactive) | 20.3 µM (inactive) | 3.03 µM (inactive) | 13.8 µM (inactive) | 4.58 µM (inactive) | 26.4 µM (inactive) | 40.7 µM (inactive) | 15.4 µM (inactive) | –
13 | O=c1[nH]nc(Cc2ccccc2)n1C1CC1 | > 100 µM (inactive) | > 100 µM (inactive) | > 100 µM (inactive) | > 100 µM (inactive) | > 100 µM (inactive) | > 100 µM (inactive) | > 100 µM (inactive) | > 100 µM (inactive) | > 100 µM (inactive) | > 100 µM (inactive) | > 100 µM (inactive) | > 100 µM (inactive) | > 100 µM (inactive) | > 100 µM (inactive) | > 100 µM (inactive) | > 100 µM (inactive) | > 100 µM (inactive) | > 100 µM (inactive) | –
14 | CC(C)(C)CN1[C@@H]2CCCC[C@H]2N(CC(C)(C)C)P1(=O)C(O)/C=C/c1ccccc1 (some centres not stated) | 50.4 µM (inactive) | 22.2 µM (inactive) | 59.8 µM (inactive) | 17.3 µM (inactive) | 22.7 µM (inactive) | 37.8 µM (inactive) | 39 µM (inactive) | 30.1 µM (inactive) | 35.5 µM (inactive) | 26.7 µM (inactive) | 29.7 µM (inactive) | 26.8 µM (inactive) | 29.8 µM (inactive) | 42.6 µM (inactive) | – | 50.1 µM (inactive) | 76.7 µM (inactive) | 18.3 µM (inactive) | 74.1 µM (inactive)
15 | Clc1ccc(-c2nnc(C34CC5CC(CC(C5)C3)C4)o2)cc1 | > 100 µM (inactive) | > 100 µM (inactive) | > 100 µM (inactive) | > 100 µM (inactive) | > 100 µM (inactive) | > 100 µM (inactive) | > 100 µM (inactive) | > 100 µM (inactive) | > 100 µM (inactive) | > 100 µM (inactive) | > 100 µM (inactive) | > 100 µM (inactive) | > 100 µM (inactive) | > 100 µM (inactive) | > 100 µM (inactive) | > 100 µM (inactive) | > 100 µM (inactive) | > 100 µM (inactive) | –
16 | COc1c(C)c2c(c(O)c1C/C=C(\C)CCC(=O)O)C(=O)OC2 [MYCOPHENOLIC ACID] | 7.05 µM (inactive) | 4.1 µM (inactive) | 0.805 µM (active) | 1.08 µM (active) | > 46.9 µM (inactive) | 1.1 µM (active) | 1.37 µM (inactive) | 4.51 µM (inactive) | 0.326 µM (active) | 0.442 µM (active) | 0.632 µM (active) | 0.706 µM (active) | 0.465 µM (active) | 0.396 µM (active) | 0.446 µM (active) | > 100 µM (inactive) | 1.91 µM (inactive) | 1.02 µM (active) | –
